US20150224089A1, “COMBINATIONS OF IKKi/TBK1 INHIBITORS WITH BETA ADRENERGIC AGONISTS OR SYMPATHETIC NERVOUS SYSTEM ACTIVATORS” (THE REGENTS OF THE UNIVERSITY OF MICHIGAN, priority 2014, published 2015)

Columns and labels:
diet-induced obese mice = test: Serum FFA and glycerol after CL-316,243 injection in ND- or HFD-fed mice; type: in vivo; conditions: amlexanox-treated HFD mice compared to vehicle-treated HFD-fed mice; oral gavage 4 days
Method: (§1) (A) Fold increase in serum FFA (left panel) and glycerol (right panel) levels 15 min after CL-316,243 injection in ND- or HFD-fed mice treated with amlexanox or vehicle control for 4 days. (B) Glycerol release from ex vivo epididymal (left panel) and inguinal (right panel) WATs after 1 hr pretreatment with amlexanox or vehicle. CL-316,243 treatment was started at time zero. (C) Immunoblots in inguinal WAT lysates from FIG. 5B after 60 min of CL-316,243 treatment. (D) cAMP levels in epididymal WAT 20 min after CL-316,243 (CL) or saline control injection in HFD-fed mice treated with amlexanox or vehicle control for 4 days. (E) Immunoblots in epididymal WAT 5 min after CL-316,243 or saline control injection in HFD-fed mice treated with amlexanox or vehicle control for 4 days. (F) Relative oxygen comsumption of mice in each treatment group.
To test the functional importance of the noncanonical IKKs in maintaining energy balance in vivo, experiments were conducted during development of embodiments of the present invention to investigate whether the administration of a selective inhibitor of IKKε and TBK1, amlexanox, can reverse diet-induced catecholamine resistance in rodentsMice were fed a high fat or normal diet, treated them with amlexanox by oral gavage for 4 days (prior to the point when weight loss is seen), and then gave a single intraperitoneal (IP) injection of the β3-adrenergic agonist CL-316,243. Injection of CL-316,243 stimulated a threefold increase in serum FFA and glycerol levels in both vehicle and amlexanox-treated mice on normal diet (ND).

[1] = system: white adipose tissues from mice on a HFD; test: Glycerol release from ex vivo epididymal and inguinal white adipose tissue; conditions: ex vivo 1 hr pretreatment with amlexanox, CL-316,243 treatment, more pronounced in inguinal depot
Method: as §1, with “group. […]” for “group.”

inguinal WAT = test: Immunoblots in ex vivo inguinal WAT lysates after CL-316,243 treatment; parameters: species or system mice
Method: as §1, with “group. […]” for “group.”

[2] = system: epididymal adipose tissue; test: cAMP levels in epididymal WAT after CL-316,243 injection in HFD-fed mice; type: in vivo; conditions: HFD mice pretreated with amlexanox 4 days; 20 min after CL-316,243 IP injection
Method: as §1
To examine whether inhibition of TBK1 and IKKε with amlexanox reverses resistance to catecholamineinduced lipolysis in vivo by increasing stimulation of cAMP production, cAMP levels we measured in epididymal adipose tissue from mice on HFD after CL-316,243 IP injection. Levels of cAMP were increased after CL-316,243 IP injection in mice on HFD pretreated with amlexanox (FIG. 5D).

3T3-L1 adipocytes = test: Ucp1 gene expression in 3T3-L1 adipocytes; type: cell-based; conditions: long-term treatment with TNFα
Method: (A) Fold increase in Ucp1 expression in 3T3-L1 adipocytes expressing empty vector, Flag-IKKε, or Flag-IKKε K38A following treatment with or without 10 μM ISO (black bars) or 10 μM CL-316,243 (CL, gray bars) for 4 hr. (B) Glycerol release from 3T3-L1 adipocytes expressing empty vector (white bars), Flag-IKKε (black bars), or Flag-IKKε K38A (gray bars) treated with or without 10 μM ISO or 10 μM CL. (C) Immunoblots of whole cell lysates from FIG. 1B. Results were replicated in triplicate. D.E. stands for dark exposure and L.E. stands for light exposure. (D) Immunoblots of whole cell lysates from 3T3-L1 adipocytes expressing empty vector or Flag-IKKε treated with or without 50 μM FSK for 15 min. (E) cAMP levels from 3T3-L1 adipocytes expressing empty vector, Flag-IKKε, or Flag-IKKε K38A treated with or without 10 μM ISO or 50 μM FSK for 15 min.
Sympathetic activation of adipose tissue is involved in maintaining energy balance by stimulating lipolysis and fat oxidation (Coppack et al., 1994; Langin, 2006; Festuccia et al., 2011; herein incorporated by reference in their entireties). Activation of β-adrenergic signaling by either β-adrenergic agonists or cold exposure in white and brown adipose tissue initiates a cascade of events through cyclic AMP (cAMP), culminating in the transcriptional upregulation of Ucp1, which results in increased proton leak and energy expenditure (Himms-Hagen et al., 2000; Cao et al., 2004; Yehuda-Shnaidman et al., 2010; herein incorporated by reference in their entireties). […] This effect was further analyzed by overexpressing IKKε in 3T3-L1 adipocytes and examining Ucp1 gene expression after treatment with the non-selective β-adrenergic agonist, isoproterenol (ISO), or the β3-adrenergic agonist, CL-316,243. Fold difference in Ucp1 gene expression was calculated by normalization of relative Ucp1 mRNA levels in treated relative to control samples. […] The induction of Ucp1 gene expression in response to ISO or CL-316,243 was blunted when WT IKKε was overexpressed in these cells. […]

Compound | fold increase in serum glycerol levels after CL-316,243 (diet-induced obese mice) | glycerol release from white adipose tissues [1] | phosphorylation of TBK1 at Ser172 (inguinal WAT; ex vivo amlexanox pretreatment, relief of feedback inhibition) | phosphorylation of HSL, perilipin and PKA substrate motif proteins in response to CL-316,243 (inguinal WAT; inguinal fat depot, amlexanox pretreatment vs vehicle-pretreated, 60 min CL-316,243) | cAMP levels in epididymal adipose tissue [2] | induction of Ucp1 gene expression in response to β-adrenergic stimuli (3T3-L1 adipocytes)
CC(C)c1ccc2oc3nc(N)c(C(=O)O)cc3c(=O)c2c1 [amlexanox, 2-amino-7-isopropyl-1-azaxanthone-3-carboxylic acid; 2-amino-7-isopropyl-5-oxo-5H-chromeno[2,3-b]pyridine-3-carboxylic acid] | significantly higher | enhanced glycerol release | increased | increased phosphorylation | increased | –
TNFα | – | – | – | – | – | repressed
